What was measured:
[1] = molecular target: Pgp in RBE4-MDR1-EGFP monolayers (Homo sapiens, UniProt P08183); details: [3H]dLop 5 nM
Description: (§1) For these experiments, a concentration equilibrium transport assay (CETA) was used, which is more sensitive to identify Pgp substrates than conventional bidirectional (concentration gradient) transport assays. In the CETA, the drug is added to both (apical and basolateral) sides of the monolayer, so that the initial drug concentration is the same in both compartments, thereby minimizing the effect of passive diffusion across the cell monolayer.
(§2) In the present study, the CETA assay was used to determine the flux of the radiolabeled Pgp substrate [N-methyl-^3H]N-desmethyl loperamide ([^3H]dLop) across hCMEC/D3-MDR1-EGFP and RBE4-MDR1-EGFP monolayers. […] Cells were grown on permeable ThinCert® filter supports (12-well, 0.4 µm pore size, PET, Greiner Bio-One). […] Transport studies were performed in triplicates seven days after seeding. […] After 30, 60, 120, 180, and 240 min, samples of 50 µL and 70 µL were retrieved from the apical and basolateral chambers, respectively. Quantification of substrate transport was conducted by liquid scintillation counting using a 1450 Microbeta Trilux liquid scintillation counter (Perkin Elmer Wallac). […] Baseline dLop levels were corrected by the amount of dLop absorbed by the filter system as measured in blank inserts without cells. […]

[2] = molecular target: Pgp in hCMEC/D3-MDR1-EGFP monolayers (Homo sapiens, UniProt P08183); details: [3H]dLop 5 nM
Description: as §1, §2

[3] = molecular target: Pgp in LLC-MDR1 monolayers (Homo sapiens, UniProt P08183); details: [3H]dLop 5 nM
[4] = tested on: RBE4-MDR1-EGFP cells; test: Doxorubicin toxicity with or without Pgp inhibition by tariquidar, RBE4-MDR1-EGFP; assay type: cell-based, rat; details: doxorubicin 10 µM, 30 min
Description: (§3) For analysis of the effects of doxorubicin on Pgp-inhibited cells, confluent monolayers of RBE4- and hCMEC/D3-MDR1-EGFP cells grown on coverslips were preincubated with or without the Pgp inhibitor tariquidar (0.5 µM, 1 h, 37 °C) in Opti-MEM before the addition of doxorubicin (10 µM, 30 min, 37 °C). After substrate incubation, cells were covered with cell culture medium for 24 h. Cells were then washed once with PBS, fixed with paraformaldehyde (4%, 30 min), and permeabilized with Triton X-100 (1%, 5 min). Finally, cells were washed and coverslips were mounted in Prolong Gold antifade (Carl Roth GmbH, Karlsruhe, Germany) containing 4’,6-diamidino-2-phenylindole (DAPI) to stain nuclei. Analysis was performed with a Zeiss Axio Observer fluorescence microscope including an ApoTome.2 and using a 40× or 63× objective.

[5] = tested on: hCMEC/D3-MDR1-EGFP cells; test: Count of Pgp-EGFP-positive intracellular vesicles before and 24 h after doxorubicin, hCMEC/D3-MDR1-EGFP; assay type: cell-based, human; details: doxorubicin 10 µM, 30 min, 24 h after treatment
Description: (§4) To evaluate the number of green-fluorescent (Pgp-EGFP positive) intracellular vesicles in RBE4- and hCMEC/D3-MDR1-EGFP cells before and 24 h after treatment with doxorubicin (10 µM, 30 min, 37 °C), imaging of the cells was performed using an inverted fluorescence microscope Lumascope 620 (Etaluma Carlsbach, USA) placed in the cell culture incubator. After treatment with doxorubicin, cells were maintained in a doxorubicin-free cell culture medium until imaging. Before imaging, cellular debris was removed by washing the cells twice with sterile PBS followed by the addition of fresh doxorubicin-free culture medium.

[6] = tested on: RBE4-MDR1-EGFP cells; test: Count of Pgp-EGFP-positive intracellular vesicles before and 24 h after doxorubicin, RBE4-MDR1-EGFP; assay type: cell-based, rat; details: doxorubicin 10 µM, 30 min, 24 h after treatment
Description: as §4

[7] = tested on: hCMEC/D3-MDR1-EGFP cells; test: Doxorubicin toxicity with or without Pgp inhibition by tariquidar, hCMEC/D3-MDR1-EGFP; assay type: cell-based, human; details: doxorubicin 10 µM, 30 min
Description: as §3

[8] = tested on: Pgp in rBCECs; details: cited from earlier work

In the case of `[3H]CNC(=O)C(CCN1CCC(O)(c2ccc(Cl)cc2)CC1)(c1ccccc1)c1ccccc1` [dLop, [N-methyl-^3H]N-desmethyl loperamide], the “asymmetrical (basolateral to apical) transport in CETA” value (shortened to “asymmetrical”) [1] is reported as “not observed”, the “asymmetrical” value [2] is reported as “not observed” and the “asymmetrical” value [3] is reported as “such transport was obtained”.

With `COc1cccc2c1C(=O)c1c(O)c3c(c(O)c1C2=O)C[C@@](O)(C(=O)CO)C[C@@H]3O[C@H]1C[C@H](N)[C@H](O)[C@H](C)O1` [doxorubicin] the “toxicity 24 h after exposure, Pgp inhibited” value ([4]; after tariquidar 0.5 µM) was “cell death”, the “toxicity 24 h after exposure, absence of Pgp inhibition” value ([4]; no tariquidar) was “without any signs of toxicity” and the “increase of average number of Pgp-EGFP-positive vesicles per cell” value [5] was 170%. For the same compound, the “increase of average number of Pgp-EGFP-positive vesicles per cell” value [6] was 220%, the “toxicity 24 h after exposure, Pgp inhibited” value ([7]; after tariquidar 0.5 µM) was “cell death” and the “toxicity 24 h after exposure, absence of Pgp inhibition” value ([7]; no tariquidar) was “without any signs of toxicity”.

In the case of `COc1ccc(C[C@H](N)C(=O)N[C@H]2[C@@H](O)[C@H](n3cnc4c(N(C)C)ncnc43)O[C@@H]2CO)cc1` [puromycin], the “effect of drug exposure on Rho123 accumulation” value [8] is given as “significantly reduced”.

Source: paper PMC8330100, “Similarities and differences in the localization, trafficking, and function of P-glycoprotein in MDR1-EGFP-transduced rat versus human brain capillary endothelial cell lines” (Fluids and Barriers of the CNS, 2021)
